In patent US11384071B2, “Inhibitors of mechanotransduction to treat pain and modulate touch perception” (Max-Delbrück-Centrum für Molekulare Medizin in der …, priority 2016, dated 2022):

System: mice with chronic constriction injury
Experiment: Chronic constriction injury (CCI) model, paw withdrawal thresholds to von Frey filaments
Type: in vivo, mouse
Conditions: CCI, systemic treatment
Text: In deeply anaesthetized mice using isoflurane delivered in 100% 02 (Univentor 410 Anaesthesia unit; Univentor, Malta), four loose silk (5/0; Catgut GmbH Markneukirchen) ligatures were placed around the sciatic nerve at the level of the right mid-thigh as described previously (Wetzel et al., 2007).
Mice were allowed to habituate to the testing apparatus (acrylic chambers 10×10 cm in size, suspended above a wired mesh grid) one hour prior to behavioral testing. Only once the subject was at rest and not moving, calibrated von-Frey hair monofilaments (Aesthesio® set of 20 monofilaments, Ugo Basil) were applied to the plantar surface of the hind paw in order to deliver target forces from 0.008 grams to 4 grams increasing in an approximately logarithmic scale. A single stimulus indicated by a slight bending of the filament lasted for two seconds unless the mouse withdrew its paw. In order to measure mechanosensitivity the up-and-down method described by Chaplan^13 was adapted as follows: Testing began with a filament delivering a target force of 0.4 g, but filaments were applied three times. A positive response was noted if the subject withdrew the paw to all three filament applications, so that the successively smaller filament was presented next. […] Paw withdrawal thresholds were calculated as median of 23 to 30 determined turning points of the particular force stimuli applied to the subject.
Drug injections of OB-1 or DMSO alone were dissolved in Ringer's solution (in mM: 135 NaCl, 5 KCl, 5 HEPES, 1.8 CaCl2), 1 MgCl2) to make the OB-1 and vehicle solution. Injections were made 3 hours prior to behavioral testing, approximately 20 μl solution, 250 pmol per paw, was injected into the palm with a Hamilton syringe, gauge 33. During the injection procedure, the mouse was anaesthetized with isoflurane (1.5 to 2.5% in 02). The injection procedure lasted around 3 minutes after which the mouse was moved to the home cage for recovery before behavioral testing.
We next interrogated whether local application of OB-1 can ameliorate tactile-evoked pain behavior in neuropathic models. […] We decided to test this idea more directly by testing the effects of local OB-1 on the mechanical sensitivity of Stoml3^−/− mice with CCI. […] Off-target effects are an issue for any biologically active small molecule. We therefore tested the effects of 20 μM OB-1 in a commercially available in vitro pharmacology panel (www.cerep.fr) consisting of 79 receptors and ion channels.

NCC1(CC(=O)O)CCCCC1 [gabapentin, reference compound]
tactile allodynia: reversal of tactile allodynia
